The record followed here is PMC5218480 (PLoS ONE, 2017).

The subject of this assay is MV-4-11 cells. The experiment in a line: Gene expression microarray analysis (Affymetrix PrimeView) and GSEA. Further details: RFU PODN (11730768_x_at) / Fold change /veh PODN (11730768_x_at) / RFU LINC00158 (11744669_a_at) / Fold change /veh LINC00158 (11744669_a_at) / RFU DUSP10 (11751237_a_at) / Fold change /veh DUSP10 (11751237_a_at) / RFU ID3 (11757404_x_at) / Fold change /veh ID3 (11757404_x_at) / RFU PLEKHG5 (11737974_s_at) / Fold change /veh PLEKHG5 (11737974_s_at) / RFU LRRC4B (11730491_at) / Fold change /veh LRRC4B (11730491_at) / RFU GIMAP4 (11747438_a_at) / Fold change /veh GIMAP4 (11747438_a_at) / RFU KRT8 (11758183_x_at) / Fold change /veh KRT8 (11758183_x_at) / RFU CNN1 (11734310_a_at) / Fold change /veh CNN1 (11734310_a_at) / RFU VPS37D (11726825_at) / Fold change /veh VPS37D (11726825_at) / RFU C10orf10 (11716522_x_at) / Fold change /veh C10orf10 (11716522_x_at) / RFU KIR2DL2 /// KIR2DL4 /// KIR2DL5A /// KIR2DL5B /// KIR2DS1 /// KIR2DS2 /// KIR2DS3 /// KIR2DS4 /// KIR3DL3 /// KIR3DL3 /// KIR3DS1 (11738374_at) / Fold change /veh KIR2DL2 /// KIR2DL4 /// KIR2DL5A /// KIR2DL5B /// KIR2DS1 /// KIR2DS2 /// KIR2DS3 /// KIR2DS4 /// KIR3DL3 /// KIR3DL3 /// KIR3DS1 (11738374_at) / RFU C1QL1 (11718748_at) / Fold change /veh C1QL1 (11718748_at) / RFU TMPRSS4 (11747572_a_at) / Fold change /veh TMPRSS4 (11747572_a_at) / RFU HAMP (11756126_x_at) / Fold change /veh HAMP (11756126_x_at) / RFU RNFT2 (11725882_a_at) / Fold change /veh RNFT2 (11725882_a_at) / RFU NR4A2 (11747474_a_at) / Fold change /veh NR4A2 (11747474_a_at) / RFU ABCC12 (11746883_a_at) / Fold change /veh ABCC12 (11746883_a_at) / RFU TMEM136 (11760407_x_at) / Fold change /veh TMEM136 (11760407_x_at) / RFU CLDN22 /// WWC2 (11732394_at) / Fold change /veh CLDN22 /// WWC2 (11732394_at) / RFU HLA-DPB1 (11760878_x_at) / Fold change /veh HLA-DPB1 (11760878_x_at) / RFU SPINT1 (11716480_a_at) / Fold change /veh SPINT1 (11716480_a_at) / RFU GAP43 (11754022_s_at) / Fold change /veh GAP43 (11754022_s_at) / RFU A4GNT (11735810_at) / Fold change /veh A4GNT (11735810_at) / RFU PRB3 (11715151_x_at) / Fold change /veh PRB3 (11715151_x_at) / RFU TUBB4B (11761932_at) / Fold change /veh TUBB4B (11761932_at) / RFU CAPN14 (11732068_a_at) / Fold change /veh CAPN14 (11732068_a_at) / RFU TMCC2 (11721928_a_at) / Fold change /veh TMCC2 (11721928_a_at) / RFU IRGQ (11745062_a_at) / Fold change /veh IRGQ (11745062_a_at) / RFU FAM174B (11720279_a_at) / Fold change /veh FAM174B (11720279_a_at) / RFU TMPRSS4 (11748680_a_at) / Fold change /veh TMPRSS4 (11748680_a_at) / RFU FAM212B (11763350_a_at) / Fold change /veh FAM212B (11763350_a_at) / RFU PLEKHG5 (11743358_a_at) / Fold change /veh PLEKHG5 (11743358_a_at) / RFU ZSCAN30 (11745921_a_at) / Fold change /veh ZSCAN30 (11745921_a_at) / RFU CMKLR1 (11741424_a_at) / Fold change /veh CMKLR1 (11741424_a_at) / RFU LOC101060620 /// MAPK8IP1 (11723275_at) / Fold change /veh LOC101060620 /// MAPK8IP1 (11723275_at) / RFU SPTSSB (11747773_x_at) / Fold change /veh SPTSSB (11747773_x_at) / RFU PRSS12 (11739890_at) / Fold change /veh PRSS12 (11739890_at) / RFU BIN1 (11741810_x_at) / Fold change /veh BIN1 (11741810_x_at) / RFU WNT11 (11732464_a_at) / Fold change /veh WNT11 (11732464_a_at) / RFU C10orf10 (11716521_a_at) / Fold change /veh C10orf10 (11716521_a_at) / RFU C5orf56 (11738089_at) / Fold change /veh C5orf56 (11738089_at) / RFU CYB561 (11721691_x_at) / Fold change /veh CYB561 (11721691_x_at) / RFU ANKRD19P (11752326_a_at) / Fold change /veh ANKRD19P (11752326_a_at) / RFU OR2T12 /// OR2T33 /// OR2T8 (11738714_s_at) / Fold change /veh OR2T12 /// OR2T33 /// OR2T8 (11738714_s_at) / RFU VCAN (11748164_a_at) / Fold change /veh VCAN (11748164_a_at) / RFU JSRP1 (11732532_at) / Fold change /veh JSRP1 (11732532_at) / RFU KRTAP10-11 (11738290_x_at) / Fold change /veh KRTAP10-11 (11738290_x_at) / RFU MYO3A (11730013_a_at) / Fold change /veh MYO3A (11730013_a_at) / RFU EBF3 (11725865_a_at) / Fold change /veh EBF3 (11725865_a_at) / RFU CAMK2N1 (11719241_x_at) / Fold change /veh CAMK2N1 (11719241_x_at) / RFU C5orf56 (11738088_a_at) / Fold change /veh C5orf56 (11738088_a_at) / RFU OLFML3 (11715873_a_at) / Fold change /veh OLFML3 (11715873_a_at) / RFU LOC100653217 /// NTM (11731650_a_at) / Fold change /veh LOC100653217 /// NTM (11731650_a_at) / RFU MAPK11 (11762145_a_at) / Fold change /veh MAPK11 (11762145_a_at) / RFU FIZ1 (11724087_x_at) / Fold change /veh FIZ1 (11724087_x_at) / RFU OASL (11726364_x_at) / Fold change /veh OASL (11726364_x_at) / RFU SOX15 (11748057_x_at) / Fold change /veh SOX15 (11748057_x_at) / RFU CD79A (11719716_a_at) / Fold change /veh CD79A (11719716_a_at) / RFU HIST1H1D (11736915_at) / Fold change /veh HIST1H1D (11736915_at) / RFU CASKIN2 (11723855_a_at) / Fold change /veh CASKIN2 (11723855_a_at) / RFU LOC730098 (11760151_x_at) / Fold change /veh LOC730098 (11760151_x_at) / RFU OR4N2 (11742367_at) / Fold change /veh OR4N2 (11742367_at) / RFU PRRT2 (11749266_a_at) / Fold change /veh PRRT2 (11749266_a_at) / RFU SNX32 (11753110_a_at) / Fold change /veh SNX32 (11753110_a_at) / RFU CDHR5 (11726645_a_at) / Fold change /veh CDHR5 (11726645_a_at) / RFU RCAN1 (11760418_a_at) / Fold change /veh RCAN1 (11760418_a_at) / RFU FAM167A (11723789_a_at) / Fold change /veh FAM167A (11723789_a_at) / RFU FAM26E (11764081_at) / Fold change /veh FAM26E (11764081_at) / RFU ISYNA1 (11749810_s_at) / Fold change /veh ISYNA1 (11749810_s_at) / RFU ACY1 (11761880_at) / Fold change /veh ACY1 (11761880_at) / RFU 11764098_at / Fold change /veh 11764098_at / RFU SAMD14 (11745864_x_at) / Fold change /veh SAMD14 (11745864_x_at) / RFU NPB (11741838_a_at) / Fold change /veh NPB (11741838_a_at) / RFU TMPRSS6 (11731388_a_at) / Fold change /veh TMPRSS6 (11731388_a_at) / RFU KRTAP10-2 (11738614_at) / Fold change /veh KRTAP10-2 (11738614_at) / RFU ARHGAP8 /// PRR5-ARHGAP8 (11727945_x_at) / Fold change /veh ARHGAP8 /// PRR5-ARHGAP8 (11727945_x_at) / RFU KRTAP5-7 /// NADSYN1 (11734609_at) / Fold change /veh KRTAP5-7 /// NADSYN1 (11734609_at) / RFU RASL12 (11751679_a_at) / Fold change /veh RASL12 (11751679_a_at) / RFU CDKN2B (11736163_a_at) / Fold change /veh CDKN2B (11736163_a_at) / RFU PRF1 (11729649_at) / Fold change /veh PRF1 (11729649_at) / RFU, ZNF638 /// ZNF638-IT1 / Fold change vs veh, ZNF638 /// ZNF638-IT1 / RFU, PANK3 / Fold change vs veh, PANK3 / RFU, SH3YL1 / Fold change vs veh, SH3YL1 / RFU, ZEB2 / Fold change vs veh, ZEB2 / RFU, NRIP1 / Fold change vs veh, NRIP1 / RFU, PTTG1IP / Fold change vs veh, PTTG1IP / RFU, CAPN2 / Fold change vs veh, CAPN2 / RFU, MED14 / Fold change vs veh, MED14 / RFU, SNORA58 / Fold change vs veh, SNORA58 / RFU, C1orf63 / Fold change vs veh, C1orf63 / RFU, LRRFIP1 / Fold change vs veh, LRRFIP1 / RFU, NDUFAF7 / Fold change vs veh, NDUFAF7 / RFU, SLC12A2 / Fold change vs veh, SLC12A2 / RFU, IBTK / Fold change vs veh, IBTK / RFU, ESF1 / Fold change vs veh, ESF1 / Fold change vs veh, TMEM50B / RFU, TAOK1 / Fold change vs veh, TAOK1 / RFU, ACBD3 / Fold change vs veh, ACBD3 / RFU, TMA16 / Fold change vs veh, TMA16 / RFU, RWDD3 / Fold change vs veh, RWDD3 / RFU, BCAT1 / Fold change vs veh, BCAT1 / RFU, EDEM3 / Fold change vs veh, EDEM3 / RFU, TMEM33 / Fold change vs veh, TMEM33 / RFU, WDR75 / Fold change vs veh, WDR75 / RFU, AHCTF1 / Fold change vs veh, AHCTF1 / RFU, TFRC / Fold change vs veh, TFRC / RFU, ZDHHC17 / Fold change vs veh, ZDHHC17 / RFU, NOM1 / Fold change vs veh, NOM1 / RFU, ARL8B / Fold change vs veh, ARL8B / RFU, ZBTB11 / Fold change vs veh, ZBTB11 / RFU, TAMM41 / Fold change vs veh, TAMM41 / RFU, KIAA1704 /// LOC100996395 / Fold change vs veh, KIAA1704 /// LOC100996395 / RFU, ING1 / Fold change vs veh, ING1 / RFU, TRMT61B / Fold change vs veh, TRMT61B / RFU, FUBP3 / Fold change vs veh, FUBP3 / RFU, TP53 / Fold change vs veh, TP53 / RFU, TNKS2 / Fold change vs veh, TNKS2 / RFU, ZFP14 / Fold change vs veh, ZFP14 / RFU, ACTR2 / Fold change vs veh, ACTR2 / RFU, PPP3R1 / Fold change vs veh, PPP3R1 / RFU, PIK3R1 / Fold change vs veh, PIK3R1 / RFU, HNRNPA1 / Fold change vs veh, HNRNPA1 / RFU, RNF170 / Fold change vs veh, RNF170 / RFU, ZNF28 / Fold change vs veh, ZNF28 / RFU, RNGTT / Fold change vs veh, RNGTT / RFU, OGT / Fold change vs veh, OGT / RFU, BRD1 / Fold change vs veh, BRD1 / RFU, MARS / Fold change vs veh, MARS / RFU, ZNF655 / Fold change vs veh, ZNF655 / RFU, FAHD1 / Fold change vs veh, FAHD1 / RFU, BDP1 / Fold change vs veh, BDP1 / RFU, LRRCC1 / Fold change vs veh, LRRCC1 / RFU, ARID1A / Fold change vs veh, ARID1A / RFU, ZNF146 / Fold change vs veh, ZNF146 / RFU, ZNF330 / Fold change vs veh, ZNF330 / RFU, GPN3 / Fold change vs veh, GPN3 / RFU, C9orf123 / Fold change vs veh, C9orf123 / RFU, N4BP2L2 / Fold change vs veh, N4BP2L2 / RFU, ARFIP1 / Fold change vs veh, ARFIP1 / RFU, FAM179B / Fold change vs veh, FAM179B / RFU, BCL10 / Fold change vs veh, BCL10 / RFU, UHRF1BP1L / Fold change vs veh, UHRF1BP1L / RFU, BET1 / Fold change vs veh, BET1 / RFU, CNOT2 / Fold change vs veh, CNOT2 / RFU, ZNF268 / Fold change vs veh, ZNF268 / Fold change vs veh, ZNF507 / RFU, DGCR2 / Fold change vs veh, DGCR2 / RFU, WDSUB1 / Fold change vs veh, WDSUB1 / Fold change vs veh, HSP90B1 /// MIR3652 / RFU, ADSS / Fold change vs veh, ADSS / RFU, GK / Fold change vs veh, GK / RFU, ZNF148 / Fold change vs veh, ZNF148 / RFU, TAF9 / Fold change vs veh, TAF9 / RFU, SLC1A5 / Fold change vs veh, SLC1A5 / RFU, SLMO2 / Fold change vs veh, SLMO2 / RFU, ABCC4 / Fold change vs veh, ABCC4 / RFU, LOC101060439 /// RAP1B / Fold change vs veh, LOC101060439 /// RAP1B / RFU, RFX7 / Fold change vs veh, RFX7 / RFU, GTPBP10 / Fold change vs veh, GTPBP10 / RFU, CNEP1R1 / Fold change vs veh, CNEP1R1 / RFU, BIVM-ERCC5 /// ERCC5 / Fold change vs veh, BIVM-ERCC5 /// ERCC5 / RFU, ILF3 / Fold change vs veh, ILF3 / RFU 11762660_at / Fold change /veh 11762660_at / RFU VCAN (11757783_s_at) / Fold change /veh VCAN (11757783_s_at) / RFU DDX43 (11728927_at) / Fold change /veh DDX43 (11728927_at) / RFU KRT8 (11758188_x_at) / Fold change /veh KRT8 (11758188_x_at) / RFU NKD1 (11759106_at) / Fold change /veh NKD1 (11759106_at) / RFU SRD5A1 (11742802_a_at) / Fold change /veh SRD5A1 (11742802_a_at) / RFU TPSAB1 /// TPSB2 (11721975_s_at) / Fold change /veh TPSAB1 /// TPSB2 (11721975_s_at) / RFU GSTM3 (11746129_a_at) / Fold change /veh GSTM3 (11746129_a_at) / RFU IL23R (11737362_x_at) / Fold change /veh IL23R (11737362_x_at) / RFU TMEM51 (11727254_a_at) / Fold change /veh TMEM51 (11727254_a_at) / RFU PIWIL2 (11732686_x_at) / Fold change /veh PIWIL2 (11732686_x_at) / RFU ORM1 (11744905_x_at) / Fold change /veh ORM1 (11744905_x_at) / RFU CCDC152 (11743942_at) / Fold change /veh CCDC152 (11743942_at) / RFU ECM1 (11717891_a_at) / Fold change /veh ECM1 (11717891_a_at) / RFU IL23R (11748794_a_at) / Fold change /veh IL23R (11748794_a_at) / RFU TNFAIP8L3 (11732012_x_at) / Fold change /veh TNFAIP8L3 (11732012_x_at) / RFU MBOAT4 (11741988_at) / Fold change /veh MBOAT4 (11741988_at) / RFU 11764193_at / Fold change /veh 11764193_at / RFU TMEM53 (11763286_at) / Fold change /veh TMEM53 (11763286_at) / RFU MAGEB2 (11727129_at) / Fold change /veh MAGEB2 (11727129_at) / RFU TMEM200A (11744735_a_at) / Fold change /veh TMEM200A (11744735_a_at) / RFU CCDC152 (11751479_a_at) / Fold change /veh CCDC152 (11751479_a_at) / RFU FAM211A (11726209_a_at) / Fold change /veh FAM211A (11726209_a_at) / RFU RGS16 (11746705_a_at) / Fold change /veh RGS16 (11746705_a_at) / RFU VCAN (11755009_s_at) / Fold change /veh VCAN (11755009_s_at) / RFU RHOB (11743442_s_at) / Fold change /veh RHOB (11743442_s_at) / RFU RGS16 (11720943_a_at) / Fold change /veh RGS16 (11720943_a_at) / RFU RGS16 (11720944_at) / Fold change /veh RGS16 (11720944_at) / RFU, VPS4B / Fold change vs veh, VPS4B / RFU, CREB1 / Fold change vs veh, CREB1 / RFU, DNAJC13 / Fold change vs veh, DNAJC13 / RFU, GNAQ / Fold change vs veh, GNAQ / RFU, CDK5R1 / Fold change vs veh, CDK5R1 / RFU, ZRANB3 / Fold change vs veh, ZRANB3 / RFU, CUL4A / Fold change vs veh, CUL4A / RFU, CCNY / Fold change vs veh, CCNY / RFU, UFL1 / Fold change vs veh, UFL1 / RFU, COG3 / Fold change vs veh, COG3 / RFU, DIAPH2 / Fold change vs veh, DIAPH2 / RFU, SKA2 / Fold change vs veh, SKA2 / RFU, AFF3 / Fold change vs veh, AFF3 / RFU, LMF1 / Fold change vs veh, LMF1 / RFU, IPO11 / Fold change vs veh, IPO11 / RFU, DFFB / Fold change vs veh, DFFB / RFU, FOXP1 / Fold change vs veh, FOXP1 / RFU, CARD8 / Fold change vs veh, CARD8 / RFU, STRN3 / Fold change vs veh, STRN3 / RFU, ADK / Fold change vs veh, ADK / RFU, RASSF2 / Fold change vs veh, RASSF2 / RFU, WIPF1 / Fold change vs veh, WIPF1 / RFU, LARP1B / Fold change vs veh, LARP1B / RFU, RASA1 / Fold change vs veh, RASA1 / RFU, RB1 / Fold change vs veh, RB1 / RFU, PPFIA1 / Fold change vs veh, PPFIA1 / RFU, MAT2A / Fold change vs veh, MAT2A / RFU, CCT5 / Fold change vs veh, CCT5 / RFU, WDR92 / Fold change vs veh, WDR92 / RFU, CUX1 / Fold change vs veh, CUX1 / RFU, TTC7A / Fold change vs veh, TTC7A / RFU, TMEM135 / Fold change vs veh, TMEM135 / RFU, DEPTOR / Fold change vs veh, DEPTOR / RFU, CPM / Fold change vs veh, CPM / RFU, DNAJB6 / Fold change vs veh, DNAJB6 / RFU, CACNA2D3 / Fold change vs veh, CACNA2D3 / RFU, DTX4 / Fold change vs veh, DTX4 / RFU, TFCP2 / Fold change vs veh, TFCP2 / RFU, GMCL1 /// GMCL1P1 / Fold change vs veh, GMCL1 /// GMCL1P1 / RFU, AEBP2 / Fold change vs veh, AEBP2 / RFU, SNHG1 /// SNORD22 /// SNORD25 /// SNORD26 /// SNORD27 /// SNORD28 /// SNORD29 /// SNORD31 / Fold change vs veh, SNHG1 /// SNORD22 /// SNORD25 /// SNORD26 /// SNORD27 /// SNORD28 /// SNORD29 /// SNORD31 / Fold change (Aza/veh), C12orf56 (ProbeSet 11735607_a_at) / Fold change (ACY-1035/veh), C12orf56 (ProbeSet 11735607_a_at) / Fold change (Aza/veh), FGFR1OP (ProbeSet 11751329_s_at) / Fold change (ACY-1035/veh), FGFR1OP (ProbeSet 11751329_s_at) / Fold change (Aza/veh), VPS36 (ProbeSet 11739960_a_at) / Fold change (ACY-1035/veh), VPS36 (ProbeSet 11739960_a_at) / RFU SYPL1 (11715823_x_at) / Fold change /veh SYPL1 (11715823_x_at) / RFU IGFBP7 (11715501_s_at) / Fold change /veh IGFBP7 (11715501_s_at) / RFU REEP3 (11722064_at) / Fold change /veh REEP3 (11722064_at) / RFU IGLL1 (11728026_x_at) / Fold change /veh IGLL1 (11728026_x_at): dose or concentration left out as unconfirmed. Conditions: ProbeSet 11728676_at; LIST B. Type of assay: cell-based, human.

As for `Nc1ncn([C@@H]2O[C@H](CO)[C@@H](O)[C@H]2O)c(=O)n1` [azacitidine], the “RFU, MED14” value amounted to 205.61 RFU.
